Experimental data taken from patent US11234971B2, “Methods of treating cancer comprising administration of a glucocorticoid receptor modulator and a cancer chemotherapy agent” (Corcept Therapeutics Incorporated, priority 2018, dated 2022).
Each block holds one molecule with its values, some of them ahead of it.

Experiments:
[1] = tested on: OVCAR-5 human ovarian cancer cells; experiment: OVCAR-5 cell growth (Cell Titer-Glo) with chemotherapy agents with or without dexamethasone and relacorilant; format: cell-based; conditions: for IC50 (decrease in IC50 of the agent from dexamethasone-alone to relacorilant + dexamethasone) / Max effect (increase in maximal cell toxicity of the agent from dexamethasone-alone to relacorilant + dexamethasone): OVCAR-5, 100 nM dexamethasone, 300 nM relacorilant; for Max effect (increase in maximal cell toxicity of the agent from dexamethasone-alone to relacorilant + dexamethasone): high doses of chemotherapeutic
Experimental: The initial cell density was chosen to be low enough to allow for several population doublings (typically 3 to 5) during the indicated incubation period. […] After 48 hours of incubation, serially diluted test agents in growth medium were added to each well. After 72 hours of culture, the plated cells and Cell Titer-Glo® (Promega G7571) reagents were brought to room temperature to equilibrate for 30 minutes. 200 μL of Cell Titer-Glo® reagent was then added to each well, the plate was shaken for two minutes, and then left to equilibrate for ten minutes. The Cell Titer-Glo® cell viability assay uses ATP levels to determine cell numbers. After this equilibration, luminescence was read on the Biotech Synergy II microplate reader. The percent control (% C) of cell growth for each test concentration was calculated relative to untreated wells. All tests were performed in quadruplicate. Individual assay plates were evaluated for appropriate signal and well-to-well variance in the control wells for quality control.

[2] = tested on: whole blood gene expression; experiment: Whole blood gene expression after 28 days of enzalutamide in cancer patients; format: in vivo; conditions: human cancer patients, all p-values greater than 0.5
Excerpt: Enzalutamide is an androgen receptor antagonist used in the treatment of hormone-sensitive cancers such as prostate cancer. […] The small circular markers indicate the change in gene expression for individual genes. None of the gene expression levels changes following enzalutamide (as compared to baseline levels) reach significance (all p-values are greater than 0.5).

MIA PaCa-2 xenograft = MIA PaCa-2 xenograft tumor growth in immunodeficient mice; format: in vivo; conditions: single agent
Excerpt: The present example, Example 3, provides results of administration of the glucocorticoid receptor modulator relacorilant to cancerous cells. […] The MIA PaCa-2 xenograft model uses MIA PaCa-2 cell-line cells (pancreatic tumor cells derived from a pancreatic adenocarcinoma from a patient) engrafted into immunodeficient mice. The ovarian OVCAR-5 cell line is derived from a human epithelial carcinoma of the ovary, and was established from ascitic fluid obtained (prior to cytotoxic treatment) from a patient with progressive ovarian adenocarcinoma.
FIG. 10A. Relacorilant sensitizes the MIA PaCa-2 xenograft to paclitaxel. Tumor volume of PaCa-2 xenograft tumors implanted in immunodeficient mice is shown as a function of time (days) after implantation in the presence of vehicle (filled circles), paclitaxel (7.5 mg/kg; filled squares), relacorilant alone (upwardly pointing triangles), and relacorilant+7.5 mg/kg paclitaxel (downwardly pointing triangles). 7.5 mg/kg paclitaxel was administered three times (at the days indicated by the dashed vertical lines, indicating days 8, 12, and 16 following tumor implantation into the mice).
FIG. 10B. Relacorilant with Paclitaxel Reduces MIA PaCa-2 xenograft Tumor Volume. Initial tumor volume of PaCa-2 xenograft tumors implanted in immunodeficient mice was less than 400 cubic millimeters (mm^3). […] Tumor size progression is thus indicated by lines descending from the top (100%) value. The tumor-bearing mice were treated with vehicle, relacorilant (30 mg/kg every day), paclitaxel (three doses of 7.5 mg/kg paclitaxel, one dose administered on each of the days indicated in FIG. 10A), and the combination relacorilant (30 mg/kg every day) with paclitaxel (7.5 mg/kg doses of paclitaxel each administered on days 8, 12, and 16 post implantation). […] Xenograft tumor growth was slowed by combined relacorilant+paclitaxel as compared to either paclitaxel alone or relacorilant alone. Relacorilant thus enhanced sensitivity to paclitaxel in the pancreatic MIA PaCa-2 xenograft model.

SMILES: O=c1[nH]cc(F)c(=O)[nH]1 [5-FU]
IC50 (decrease in IC50 of the agent from dexamethasone-alone to relacorilant + dexamethasone) [1]: + (~10-59% decrease in IC50 from the dexamethasone-alone to the relacorilant + dexamethasone treatments)
Max effect (increase in maximal cell toxicity of the agent from dexamethasone-alone to relacorilant + dexamethasone) [1]: −

IC50 (decrease in IC50 of the agent from dexamethasone-alone to relacorilant + dexamethasone) [1]: −
SMILES: Cc1c[nH]c(-c2cnc(NCCNc3ccc(C#N)cn3)nc2-c2ccc(Cl)cc2Cl)n1 [CHIR-99021]
Max effect (increase in maximal cell toxicity of the agent from dexamethasone-alone to relacorilant + dexamethasone) [1]: −

IC50 (decrease in IC50 of the agent from dexamethasone-alone to relacorilant + dexamethasone) [1]: −
SMILES: CCN(CC)CCCC(C)Nc1ccnc2cc(Cl)ccc12 (stereo not shown) [Chloroquine]

SMILES: COc1cccc2c1C(=O)c1c(O)c3c(c(O)c1C2=O)C[C@@](O)(C(=O)CO)C[C@@H]3O[C@H]1C[C@H](N)[C@H](O)[C@H](C)O1 [Doxorubicin]
IC50 (decrease in IC50 of the agent from dexamethasone-alone to relacorilant + dexamethasone) [1]: + (~10-59% decrease in IC50 from the dexamethasone-alone to the relacorilant + dexamethasone treatments)

SMILES: C=C1C[C@@H]2CC[C@@]34C[C@H]5O[C@H]6[C@@H](O3)[C@H]3O[C@H](CC[C@@H]3O[C@H]6[C@H]5O4)CC(=O)C[C@@H]3[C@@H](OC)[C@@H](C[C@H](O)CN)O[C@H]3C[C@H]3O[C@@H](CC[C@@H]1O2)C[C@@H](C)C3=C [Eribulin]
IC50 (decrease in IC50 of the agent from dexamethasone-alone to relacorilant + dexamethasone) [1]: ++ (>60% decrease in IC50 from the dexamethasone-alone to the relacorilant + dexamethasone treatments)

IC50 (decrease in IC50 of the agent from dexamethasone-alone to relacorilant + dexamethasone) [1]: −
SMILES: C#Cc1cccc(Nc2ncnc3cc(OCCOC)c(OCCOC)cc23)c1 [Erlotinib]

SMILES: COc1cc([C@@H]2c3cc4c(cc3[C@@H](O[C@@H]3O[C@@H]5CO[C@@H](C)O[C@H]5[C@H](O)[C@H]3O)[C@H]3COC(=O)[C@H]23)OCO4)cc(OC)c1O [Etoposide]
IC50 (decrease in IC50 of the agent from dexamethasone-alone to relacorilant + dexamethasone) [1]: + (~10-59% decrease in IC50 from the dexamethasone-alone to the relacorilant + dexamethasone treatments)
Max effect (increase in maximal cell toxicity of the agent from dexamethasone-alone to relacorilant + dexamethasone) [1]: −

IC50 (decrease in IC50 of the agent from dexamethasone-alone to relacorilant + dexamethasone) [1]: −
SMILES: O=C(O)c1ccc(-c2c[nH]c3ncc(-c4ccccc4)cc23)cc1C1CCCC1 [GSK650394]
Max effect (increase in maximal cell toxicity of the agent from dexamethasone-alone to relacorilant + dexamethasone) [1]: −

SMILES: CCc1c2c(nc3ccc(OC(=O)N4CCC(N5CCCCC5)CC4)cc13)-c1cc3c(c(=O)n1C2)COC(=O)[C@]3(O)CC [Irinotecan]
IC50 (decrease in IC50 of the agent from dexamethasone-alone to relacorilant + dexamethasone) [1]: + (~10-59% decrease in IC50 from the dexamethasone-alone to the relacorilant + dexamethasone treatments)
Max effect (increase in maximal cell toxicity of the agent from dexamethasone-alone to relacorilant + dexamethasone) [1]: −

SMILES: CS(=O)(=O)CCNCc1ccc(-c2ccc3ncnc(Nc4ccc(OCc5cccc(F)c5)c(Cl)c4)c3c2)o1 [Lapatinib]
IC50 (decrease in IC50 of the agent from dexamethasone-alone to relacorilant + dexamethasone) [1]: + (~10-59% decrease in IC50 from the dexamethasone-alone to the relacorilant + dexamethasone treatments)
Max effect (increase in maximal cell toxicity of the agent from dexamethasone-alone to relacorilant + dexamethasone) [1]: −

IC50 (decrease in IC50 of the agent from dexamethasone-alone to relacorilant + dexamethasone) [1]: −
SMILES: O=C(c1cc(Cc2n[nH]c(=O)c3ccccc23)ccc1F)N1CCN(C(=O)C2CC2)CC1 [Olaparib]
Max effect (increase in maximal cell toxicity of the agent from dexamethasone-alone to relacorilant + dexamethasone) [1]: −

SMILES: Nc1nc2[nH]cc(CCc3ccc(C(=O)N[C@@H](CCC(=O)O)C(=O)O)cc3)c2c(=O)[nH]1 [Pemetrexed]
IC50 (decrease in IC50 of the agent from dexamethasone-alone to relacorilant + dexamethasone) [1]: ++ (>60% decrease in IC50 from the dexamethasone-alone to the relacorilant + dexamethasone treatments)

SMILES: CC(C)(C)c1[nH]cnc1/C=c1\[nH]c(=O)/c(=C/c2ccccc2)[nH]c1=O [Plinabulin]
IC50 (decrease in IC50 of the agent from dexamethasone-alone to relacorilant + dexamethasone) [1]: −

IC50 (decrease in IC50 of the agent from dexamethasone-alone to relacorilant + dexamethasone) [1]: −
SMILES: CC(=O)Nc1cccc(-n2c(=O)n(C3CC3)c(=O)c3c(Nc4ccc(I)cc4F)n(C)c(=O)c(C)c32)c1 [Trametinib]
Max effect (increase in maximal cell toxicity of the agent from dexamethasone-alone to relacorilant + dexamethasone) [1]: −

SMILES: CC1(C)CCC(CN2CCN(c3ccc(C(=O)NS(=O)(=O)c4ccc(NCC5CCOCC5)c([N+](=O)[O-])c4)c(Oc4cnc5[nH]ccc5c4)c3)CC2)=C(c2ccc(Cl)cc2)C1 [Venetoclax]
IC50 (decrease in IC50 of the agent from dexamethasone-alone to relacorilant + dexamethasone) [1]: + (~10-59% decrease in IC50 from the dexamethasone-alone to the relacorilant + dexamethasone treatments)
Max effect (increase in maximal cell toxicity of the agent from dexamethasone-alone to relacorilant + dexamethasone) [1]: −

SMILES: CCC1=C[C@@H]2CN(C1)Cc1c([nH]c3ccccc13)[C@@](C(=O)OC)(c1cc3c(cc1OC)N(C)[C@H]1[C@@](O)(C(=O)OC)[C@H](OC(C)=O)[C@]4(CC)C=CCN5CC[C@]31[C@@H]54)C2 [Vinorelbine]
IC50 (decrease in IC50 of the agent from dexamethasone-alone to relacorilant + dexamethasone) [1]: + (~10-59% decrease in IC50 from the dexamethasone-alone to the relacorilant + dexamethasone treatments)

SMILES: N.N.O=C([O-])C1(C(=O)[O-])CCC1.[Pt+2] [carboplatin]
cell viability ([1]; OVCAR-5 with 100 nM dexamethasone, 1 nM to 2187 nM carboplatin): dose dependent

SMILES: N.N.[Cl][Pt][Cl] [cisplatin]
IC50 (decrease in IC50 of the agent from dexamethasone-alone to relacorilant + dexamethasone) [1]: + (~10-59% decrease in IC50 from the dexamethasone-alone to the relacorilant + dexamethasone treatments)
Max effect (increase in maximal cell toxicity of the agent from dexamethasone-alone to relacorilant + dexamethasone) [1]: + (consistent ~0-40% increase in toxicity at high doses of chemotherapeutic from the dexamethasone-alone to the relacorilant + dexamethasone treatments)

SMILES: CNC(=O)c1ccc(N2C(=S)N(c3ccc(C#N)c(C(F)(F)F)c3)C(=O)C2(C)C)cc1F [enzalutamide]
changes in gene expression levels compared to baseline [2]: did not result in any significant changes

SMILES: CC(=O)O[C@H]1C(=O)[C@@]2(C)[C@H]([C@H](OC(=O)c3ccccc3)[C@]3(O)C[C@H](OC(=O)[C@H](O)[C@@H](NC(=O)c4ccccc4)c4ccccc4)C(C)=C1C3(C)C)[C@]1(OC(C)=O)CO[C@@H]1C[C@@H]2O [paclitaxel]
tumor growth (tumor volume over time) (MIA PaCa-2 xenograft; paclitaxel 7.5 mg/kg on days 8, 12 and 16): ineffective in delaying tumor growth
time to progression (fraction of tumors whose volume remained below 400 mm^3) (MIA PaCa-2 xenograft; relacorilant 30 mg/kg every day or paclitaxel 7.5 mg/kg on days 8, 12, 16): ineffective alone in delaying tumor growth
